Experimental data from patent US7049334B2, “Enhancement of learning and memory and treatment of amnesia” (priority 2001, dated 2006).

Key:
[1] = test system: Schaffer collateral-CA1 pathway of rat hippocampal slices; experiment: LTP induction in Schaffer collateral-CA1 pathway of hippocampal slices (fEPSP slope); format: cell-based, Wistar rats; conditions: fEPSP slope 60 min after weak tetanus (50 Hz, 0.5 s); 1.6 μM perfused 3 min before and 3 min after tetanus
[2] = test system: hippocampal slices taken from young rats; experiment: Plasticity induced by low-frequency stimulation (LTD) in hippocampal slices; format: cell-based, Wistar rats; conditions: 0.02 Hz stimulation; alone
Procedure: After decapitation, brains of either adult ([…], for the induction of long-term potentiation) or young (2–3 weeks old, for the induction of long-term depression) Wistar rats were rapidly removed, and the hippocampus was dissected out. Transverse hippocampal slices (450 μm thickness) were immediately placed in an ice-cold cutting buffer containing 124 mM NaCl, 3 mM KCl, 1.0 mM Na2HPO4, 25 mM NaHCO3, 0.5 mM CaCl2, 5.0 mM MgSO4, 10 mM glucose, saturated with 95% O2 and 5% CO2. The slices were then maintained in an interface chamber at room temperature, and perfused at flow rate of 1–2 mL/min with artificial cerebrospinal fluid (ACSF). The composition of ACSF contained 124 mM NaCl, 4.4 mM KCl, 1.0 mM Na2HPO4, 25 mM NaHCO3, 2.0 mM or 2.5 mM CaCl2, 1.0 mM MgSO4, 10 mM glucose, gassed with 95% O2 and 5% CO2. The field Excitatory Postsynaptic Potentials (fEPSP) was evoked by test pulses through a bipolar stimulating electrode placed on the Schaffer collateral/commissural pathway, and recorded from the stratum radiatum of CA1 using a glass micropipette electrode (5–10 MΩ) filled with 2 M NaCl. The test pulse duration was 100 μsec, and test responses were elicited at 0.02 Hz. To record field potentials in the cortico-amygdala pathway, a stimulating electrode was placed in the external capsule, which contained fibers from the auditory cortex to the lateral amygdala. Bicuculine (10 μM) was present in the perfusion solution when the fEPSPs of amygdala were recorded. To increase the effectiveness of fused pyrazolyl compounds that were applied through the perfusion system, the ACSF level in the recording chamber was sufficiently high to cover the hippocampal slices but not to float them. All fused pyrazolyl compounds were perfused in ACSF.
Evoked fEPSPs were recorded and data were analyzed. The initial slope of the fEPSPs was calculated, and the data were expressed as percentages of the average of the base-line slope of the fEPSPs.
Compound 1 on plasticity induced by low-frequency stimulation (LFS): LFS (900 pulses at 1 Hz) was delivered to hippocampal slices taken from young rats ([…]) to induce long-term depression (LTD). Stimulation of hippocampal slices at 1 Hz for 3 min produced no LTD of synaptic transmission. However, this short-duration LFS induced significant LTD in the presence of Compound 1 (83.4±10.9%, n=3). […] A weaker electrical stimulation at 0.02 Hz was delivered in the presence of both nitric oxide donor nitroprusside ([…]) and Compound 1 (1.6 μM). Simultaneous perfusion of the nitric oxide donor nitroprusside (30 μM) and Compound 1 (1.6 μM) induced LTD.

rats (spatial memory) = experiment: Morris water maze; format: in vivo; conditions: L-NAME intracerebroventricular (1 mmole/10 mL) 10 min before first trial of daily training
Procedure: Morris water maze: Morris water maze was performed in a circular pool (224 cm in diameter, 46 cm in height) located in a room with distinctive visual cues. Water was filled to a depth of 36 cm and a transparent plastic platform (25×25 cm, 32 cm in height) was located at the center of a fixed quadrant. Rats were trained for two days in the task environment: free-swimming in the pool without the transparent plastic platform. Each training session was 2 min and the rats were picked up from the pool by an experimenter. Then, rats received 4 consecutive daily training trials for the following six days. During each training trial, each rat was placed into the water randomly from one of the quadrants. The rat had to swim until it climbed onto the plastic platform submerged underneath the water. The time duration from being placed into the water to climbing onto the plastic platform was recorded and defined as escape latency. […] Each rat stayed on the platform for 60 s, which also served as the interval of trial. Compound 1 (1 mg/kg) or vehicle was daily injected to each rat 10 min before the first training trial. After the last training trial of each day, each rat was dried by a towel, and an electric heater was placed in its home cage.
Substantial evidence implicates the hippocampus in acquisition and retention of spatial information. See, e.g., Ohon et al. (1979) Behav. Brain Sci. 2: 316–365; and Barnes (1988) Trend Neurosci. 11: 163–169. The effect of Compound 1 on the acquisition of spatial memory in the Morris water maze was tested. Rats received 4 consecutive training trials every day. Compound 1 (1 mg/kg) was daily injected (i.p., 1 mg/kg) 10 min before the first trial of training. […] The escape latencies of 2˜4 trials were 93.8±8.7 s, 79.3±12/3 s and 57.6±12.5 s for a control group, and 50.4±10.2 s, 47.3±6.8 s and 30.3±10.3 for the Compound 1 group (n=10), respectively. The escape latencies of the first trial on the following 3 training days were also markedly shortened in the Compound 1 group. The escape latencies were 91.1±9.8 s, 47.1±3.9 s and 35.3±6.1 s for the control group, and 55.4±12.8 s, 15.3±2.1 s, and 13.4±1.7 s for the Compound 1 group (n=10), respectively. […] The escape latency is shorter in the Compound 1 group throughout the whole experimental period up to 21 days although Compound 1 was only administered […] for 4 days. The mean escape latency on the day-21 is 13.5±1.8 s and 6.0±0.5 s (n=10 each) for the control group and the Compound 1 group, respectively. From results shown above, Compound 1 is a promising drug for improving learning and memory. Compound 1 was mixed with 1.25% carboxymethylcellulose (CMC) and orally delivered to stomach (10 mg/kg) directly 30 min before the first trial for 6 successive days.
Since L-NAME antagonized Compound 1-induced LTP enhancement in hippocampal slices, in vivo experiments were performed to test the effect of L-NAME on the improved learning and memory provoked by Compound 1. In these experiments, rats chronically implanted with cannulae were injected intracerebroventrically with L-NAME (1 mmole/10 mL) or saline 10 min before the first trial of daily training, concomitant with i.p. injection of Compound 1 (1 mg/kg). […] Intracerebroventricular administration of KT 5823 also impaired the Compound 1-induced enhancement.

Compound | fEPSP [1] [%] | also measured
COc1ccc2c(-c3ccc(CO)o3)nn(Cc3ccccc3)c2c1 [Compound 5] | 180.8 | 
OCc1ccc(-c2nn(Cc3ccccc3)c3cc(F)ccc23)o1 [Compound 3] | 218.9 | 
nitroprusside [reference compound] |  | potentiation of fEPSP at 0.02 Hz stimulation, substance alone [2]: produced no potentiation
OCc1ccc(-c2nn(Cc3ccccc3)c3cc4c(cc23)OCO4)o1 [Compound 6] | 260.3 | 
COC(=O)c1ccc(-c2nn(Cc3ccccc3)c3ccccc23)o1 [Compound 7] | 200.3 | 
COC(=O)c1ccc(-c2n[nH]c3ccccc23)o1 [Compound 8] | 180.6 | 
COC(=O)[C@@H](N)CCCNC(=N)N[N+](=O)[O-] [L-NAME, N^G-nitro-L-arginine-methylester, reference compound] |  | effect of L-NAME on the task (rats (spatial memory)): profound amnesia
COCc1ccc(-c2nn(Cc3ccccc3)c3ccccc23)o1 [Compound 4] | 216.9 | 
CNCc1ccc(-c2nn(Cc3ccccc3)c3ccccc23)o1 [Compound 2] | 165.9 | 
